In patent US11396517B1, “Exo-aza spiro inhibitors of menin-MLL interaction” (Janssen Pharmaceutica NV, priority 2017, dated 2022):
Where two headings read alike, the source gives them in different places.

Legend:
MOLM14 [1] = experiment: Proliferation assay A (spheroid assay) MOLM14; type: cell-based, human; settings: MOLM14 cells, 8 d, AUC of confluence against time, absolute IC50, read-out: (3a) Spheroid assay MOLM14 (IC50(μM)) Assay A
Experimental: (§1) 3a) Proliferation Assay A
(§2) The anti-proliferative effect of menin/MLL protein/protein interaction inhibitor test compounds was assessed in human leukemia cell lines. The cell lines MV-4-11 and MOLM14 harbor MILL translocations and express the MILL fusion proteins MLL-AF4 and MLL-AF9, respectively, as well as the wildtype protein from the second allele. […] K562 was used as a control cell line containing two MLL wildtype alleles in order to exclude compounds that display general cytotoxic effects.
(§3) MV-4-11 and MOLM14 were cultured in RPMI-1640 (Sigma Aldrich) supplemented with 10% fetal bovine serum (HyClone), 2 mM L-glutamine (Sigma Aldrich) and 50 μg/ml gentamycin (Gibco). K562 were propagated in RPMI-1640 (Sigma Aldrich) supplemented with 20% fetal bovine serum (HyClone), 2 mM L-glutamine (Sigma Aldrich) and 50 μg/ml gentamycin (Gibco).
(§4) In order to assess the anti-proliferative effects, 1,500 MV-4-11, 300 MOLM14 or 750 K562 cells were seeded in 200 μl media per well in 96-well round bottom, ultra-low attachment plates (Costar, catalogue number 7007). Cell seeding numbers were chosen based on growth curves to ensure linear growth throughout the experiment. Test compounds were added at different concentrations and the DMSO content was normalized to 0.3%. Cells were incubated for 8 d at 37° C. and 5% CO2. Spheroid like growth was monitored in real-time by live-cell imaging (IncuCyteZOOM, Essenbio, 4× objective) acquiring one image every four hours for 8 d. Confluence (%) as a measure of spheroid size was determined using an integrated analysis tool.
In order to determine the cumulative effect of the test compounds over time, the area under the curve (AUC) in a plot of confluence against time was calculated. Confluence at the beginning of the experiment (t=0) was used as baseline for the AUC calculation.
Absolute IC50 values were calculated according to the following procedure: % Control=(AUC sample/AUC control)*100
AUC control mean AUC of control values (cells without compound/DMSO as vehicle control)
A non-linear curve fit was applied using the least squares (ordinary) fit method to the plot of % control versus compound concentration. Based on this, the absolute IC50 value (half maximal inhibitory concentration of the test compound causing an anti-proliferative effect of 50% relative to the vehicle control) was calculated.

K562 [2] = experiment: Proliferation assay A (spheroid assay) K562 control cell line; type: cell-based; settings: Homo sapiens, 192 h; K562 cells (MLL wildtype control), 8 d, AUC of confluence against time; read-out: (3a) Spheroid assay K562 Assay A
Experimental: as §1, §2
MV-4-11 and MOLM14 were cultured in RPMI-1640 (Sigma Aldrich) supplemented with 10% fetal bovine serum (HyClone), 2 mM L-glutamine (Sigma Aldrich) and 50 μg/ml gentamycin (Gibco). […]
In order to assess the anti-proliferative effects, 1,500 MV-4-11, 300 MOLM14 or 750 K562 cells were seeded in 200 μl media per well in 96-well round bottom, ultra-low attachment plates (Costar, catalogue number 7007). […] Spheroid like growth was monitored in real-time by live-cell imaging (IncuCyteZOOM, Essenbio, 4× objective) acquiring one image every four hours for 8 d. Confluence (%) as a measure of spheroid size was determined using an integrated analysis tool.
In order to determine the cumulative effect of the test compounds over time, the area under the curve (AUC) in a plot of confluence against time was calculated. […]

MV-4-11 [3] = experiment: Proliferation assay A (spheroid assay) MV-4-11; type: cell-based, human; settings: MV-4-11 cells, 8 d, AUC of confluence against time, absolute IC50, read-out: (3a) Spheroid assay MV-4-11 (IC50(μM)) Assay A
Procedure, shortened: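 Spheroid growth in ultra-low-attachment round-bottom wells (1,500 MV-4-11, 300 MOLM14 or 750 K562 cells), compound titration at 0.3% DMSO, 8 d at 37° C. Confluence imaged every 4 h; AUC from t=0 baseline expressed as % of DMSO control and fitted for absolute IC50.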

menin = molecular target: T1, menin (Homo sapiens, UniProt O00255, T541A); experiment: Menin/MLL homogenous time-resolved fluorescence (HTRF) assay; type: binding
T1 construct: Menin (a.a. 1-610-6×his tag)
T1 sequence (O00255 with tags, fused parts or gaps T541A): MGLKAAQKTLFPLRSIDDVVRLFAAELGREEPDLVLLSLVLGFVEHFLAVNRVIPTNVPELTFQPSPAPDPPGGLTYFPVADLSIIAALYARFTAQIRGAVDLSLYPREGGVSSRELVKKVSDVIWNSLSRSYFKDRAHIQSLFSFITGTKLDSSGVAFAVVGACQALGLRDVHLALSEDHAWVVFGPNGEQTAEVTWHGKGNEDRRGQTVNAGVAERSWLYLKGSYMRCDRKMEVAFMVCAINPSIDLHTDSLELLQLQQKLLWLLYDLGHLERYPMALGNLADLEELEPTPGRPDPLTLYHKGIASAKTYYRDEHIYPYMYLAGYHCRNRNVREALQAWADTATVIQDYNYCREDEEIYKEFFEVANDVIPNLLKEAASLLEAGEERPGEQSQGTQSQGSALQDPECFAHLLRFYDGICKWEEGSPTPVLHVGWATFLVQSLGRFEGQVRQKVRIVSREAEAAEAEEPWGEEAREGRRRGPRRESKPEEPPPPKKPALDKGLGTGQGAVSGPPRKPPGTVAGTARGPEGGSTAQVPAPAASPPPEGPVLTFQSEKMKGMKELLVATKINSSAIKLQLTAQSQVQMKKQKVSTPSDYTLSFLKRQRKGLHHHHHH
Procedure, shortened: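 Terbium-labeled menin (aa 1-610, His-tagged; […]) preincubated 5 min with compound, then 75 nM FITC-MBM1 peptide for 15 min, ambient, Tris pH 7.5, 0.5% DMSO. HTRF 520/490 ratio; 11-point 3-fold titration; IC50 from % inhibition fit.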

MOLM14 [4] = experiment: Proliferation assay B (spheroid assay) MOLM14; type: cell-based, human; settings: MOLM14 cells, confluence at day 8, absolute IC50, read-out: (3b) Spheroid assay MOLM14 (IC50(μM)) Assay B
Procedure, shortened: (§5)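 Leukemia cells grown as spheroids in ultra-low-attachment round-bottom wells with compound at 0.3% DMSO for 8 d at 37 °C. Confluence imaged at day 8 as spheroid size, normalized between DMSO and 1 μM staurosporine controls; absolute IC50 from sigmoidal fit with bounds fixed at 0 and 100%.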

K562 [5] = experiment: Proliferation assay B (spheroid assay) K562 control cell line; type: cell-based; settings: Homo sapiens, 192 h; K562 cells (MLL wildtype control), confluence at day 8; read-out: (3b) Spheroid assay K562 Assay B
Experimental: 3b) Proliferation Assay B
as §2, §3
as §4, with “MOLM14 cells” for “MOLM14”, “measured” for “monitored”, “images at day 8.” for “one image every four hours for 8 d.”
In order to determine the effect of the test compounds over time, the confluence in each well as a measure of spheroid size, was calculated. Confluence […] at the beginning of the experiment (t=0) was used as baseline for the calculation.
Absolute IC50 values were calculated as percent change in confluence as follows:
LC=Low Control: cells treated with 1 μM of the cytotoxic agent staurosporin
HC=High Control: Mean confluence (%) (DMSO treated cells) % Effect=100−(100*(Sample−LC)/(HC−LC))
To determine the IC50 a curve is fitted to the plot of % Effect vs Log 10 compound concentration using a sigmoidal fit with a variable slope and fixing the maximum to 100% and the minimum to 0%.

MV-4-11 [6] = experiment: Proliferation assay B (spheroid assay) MV-4-11; type: cell-based, human; settings: MV-4-11 cells, confluence at day 8, absolute IC50, read-out: (3b) Spheroid assay MV-4--11 (IC50(μM)) Assay B
Procedure, shortened: as §5

[7] = location 1, read-out: (2) location 1 Menin HTRF assay (IC50 (nM))
[8] = location 2, read-out: (2) location 2 Menin HTRF assay (IC50 (nM))

FC(F)(F)Cc1cc2c(N3CC4(CC[C@@H](NCc5ccccc5)C4)C3)ncnc2s1 (single isomer, unassigned) [Compound 47]
IC50 (MOLM14 [1]; Homo sapiens, MOLM-14, 192 h): 1.02 µM | IC50 (K562 [2]): > 15 µM | IC50 (MV-4-11 [3]; Homo sapiens, MV4-11, 192 h): 0.14 µM | IC50 (menin; [7]): 15.5 nM

CNC(=O)c1ccc(NC2CC3(CCN(c4ncnc5sc(CC(F)(F)F)cc45)C3)C2)cc1OCCN(C)C (single isomer, unassigned) [Compound 77]
IC50 (MOLM14 [4]; Homo sapiens, MOLM-14, 192 h): 0.63 µM | IC50 (K562 [5]): 7.85 µM | IC50 (MV-4-11 [6]; Homo sapiens, MV4-11, 192 h): 0.19 µM | IC50 (menin; [8]): 1.8 nM

CNC(=O)c1ccc(NC2CCC3(C2)CN(c2ncnc4sc(CC(F)(F)F)cc24)C3)cc1 (single isomer, unassigned) [Compound 98]
IC50 (MOLM14 [4]; Homo sapiens, MOLM-14, 192 h): 1.36 µM | IC50 (MOLM14 [1]; Homo sapiens, MOLM-14, 192 h): 1.3 µM | IC50 (MV-4-11 [3]; Homo sapiens, MV4-11, 192 h): 0.25 µM | IC50 (menin; [8]): 2.6 nM

O=c1[nH]c2ccc(CNC3CCC4(C3)CN(c3ncnc5sc(CC(F)(F)F)cc35)C4)cc2[nH]1 (single isomer, unassigned) [Compound 109]
IC50 (MOLM14 [4]; Homo sapiens, MOLM-14, 192 h): 2.26 µM | IC50 (MOLM14 [1]): 3.24 µM | IC50 (MV-4-11 [3]): 0.24 µM | IC50 (menin; [8]): 1.6 nM

CN1CC=C(c2cc(NC3CC4(CCN(c5ncnc6sc(CC(F)(F)F)cc56)C4)C3)ccc2C(C)(C#N)C#N)CC1 (single isomer, unassigned) [Compound 246]
IC50 (MOLM14 [4]): 0.13 µM | IC50 (K562 [5]): 3.97 µM | IC50 (MV-4-11 [6]): 0.26 µM | IC50 (menin; [8]): 206 nM

N#CCc1ccc(NC2CC3(CCN(c4ncnc5sc(CC(F)(F)F)cc45)C3)C2)cc1 (single isomer, unassigned) [Compound 307]
IC50 (MOLM14 [4]; Homo sapiens, MOLM-14, 192 h): 2.44 µM | IC50 (MOLM14 [1]): 3.38 µM | IC50 (MV-4-11 [3]): 1.05 µM | IC50 (menin; [8]): 3.1 nM

FC(F)(F)Cc1cc2c(N3CCC4(CC(NCc5ccccc5)C4)C3)ncnc2s1 (stereo not shown) [Compound 48]
IC50 (MOLM14 [1]; Homo sapiens, MOLM-14, 192 h): 1.58 µM | IC50 (K562 [2]): > 15 µM | IC50 (MV-4-11 [3]; Homo sapiens, MV4-11, 192 h): 0.35 µM | IC50 (menin; [7]): 12 nM

N#CCc1ccc(NC2CC3(CCN(c4ncnc5sc(CC(F)(F)F)cc45)C3)C2)c(F)c1 (stereo not shown) [Compound 63]
IC50 (MOLM14 [1]; Homo sapiens, MOLM-14, 192 h): 1.13 µM | IC50 (MV-4-11 [3]; Homo sapiens, MV4-11, 192 h): 1.01 µM | IC50 (menin; [8]): 44.3 nM

Cc1nc(N2CC3(CCC(NCc4ccc5[nH]c(=O)[nH]c5c4)C3)C2)c2cc(CC(F)(F)F)sc2n1 (stereo not shown) [Compound 119]
IC50 (MOLM14 [1]; Homo sapiens, MOLM-14, 192 h): 2.28 µM | IC50 (MV-4-11 [3]; Homo sapiens, MV4-11, 192 h): 2.15 µM | IC50 (menin; [8]): 47.9 nM

CNc1nc(N2CC3(CCC(NCc4ccc5[nH]c(=O)[nH]c5c4)C3)C2)c2cc(CC(F)(F)F)sc2n1 (stereo not shown) [Compound 120]
IC50 (MOLM14 [1]; Homo sapiens, MOLM-14, 192 h): 2.9 µM | IC50 (MV-4-11 [3]; Homo sapiens, MV4-11, 192 h): 2.13 µM | IC50 (menin; [8]): 52.4 nM

N#CCc1ccc(NC2CCC3(CCN(c4ncnc5sc(CC(F)(F)F)cc45)C3)C2)cc1 (stereo not shown) [Compound 143]
IC50 (MOLM14 [1]; Homo sapiens, MOLM-14, 192 h): 1.68 µM | IC50 (MV-4-11 [3]; Homo sapiens, MV4-11, 192 h): 1.94 µM | IC50 (menin; [8]): 32.2 nM

O=c1[nH]c2cc(NC3CCC4(C3)CN(c3ncnc5sc(CC(F)(F)F)cc35)C4)ccc2o1 (stereo not shown) [Compound 285]
IC50 (MOLM14 [1]; Homo sapiens, MOLM-14, 192 h): > 3.75 µM | IC50 (MV-4-11 [3]; Homo sapiens, MV4-11, 192 h): 2.65 µM | IC50 (menin; [8]): 16.2 nM

FC(F)(F)Cc1cc2c(N3CC4(CCC(Nc5ccc6cc(C(F)(F)F)[nH]c6c5)C4)C3)ncnc2s1 (stereo not shown) [Compound 288]
IC50 (MOLM14 [1]; Homo sapiens, MOLM-14, 192 h): > 3.75 µM | IC50 (MV-4-11 [3]; Homo sapiens, MV4-11, 192 h): > 3.75 µM | IC50 (menin; [8]): 135 nM

FC(F)(F)Cc1cc2c(N3CCC4(CC(Nc5ccc(-c6nnc[nH]6)cc5)C4)C3)ncnc2s1 (stereo not shown) [Compound 370]
IC50 (MOLM14 [4]; Homo sapiens, MOLM-14, 192 h): 1.57 µM | IC50 (K562 [5]): 7.3 µM | IC50 (MV-4-11 [6]; Homo sapiens, MV4-11, 192 h): 0.35 µM

O=C(NCC(F)(F)F)c1ccc(NC2CC3(CCN(c4ncnc5sc(CC(F)(F)F)cc45)C3)C2)cc1 (stereo not shown) [Compound 371]
IC50 (MOLM14 [4]; Homo sapiens, MOLM-14, 192 h): 0.3 µM | IC50 (K562 [5]): 6.48 µM | IC50 (MV-4-11 [6]; Homo sapiens, MV4-11, 192 h): 0.08 µM

FC(F)(F)Cc1cc2c(N3CC4(CC(NCc5ccccc5)C4)C3)ncnc2s1 [Compound 428]
IC50 (MOLM14 [1]; Homo sapiens, MOLM-14, 192 h): 1.84 µM | IC50 (MV-4-11 [3]; Homo sapiens, MV4-11, 192 h): 0.55 µM | IC50 (menin; [7]): 23.8 nM
